Laboratory results: PubChem BioAssay (NCI)
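Tested at 5 concentrations; 48 h exposure; 96-well plates; endpoints linearly interpolated, else capped at highest concentration. GI50: concentration for 50% inhibition of growth. The concentration for full growth arrest is given as TGI.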

What was measured:
Experiment in all cases: NCI tumour cell line growth inhibition, 48 h
[1] = test system: CAKI-1 renal
[2] = test system: SN12C renal
[3] = test system: DU-145 prostate
[4] = test system: HS 578T breast
[5] = test system: UACC-257 melanoma
[6] = test system: COLO 205 colon
[7] = test system: NCI/ADR-RES ovarian
[8] = test system: PC-3 prostate
[9] = test system: KM12 colon
[10] = test system: NCI-H23 lung
[11] = test system: SF-268 CNS
[12] = test system: T-47D breast
[13] = test system: SK-OV-3 ovarian
[14] = test system: OVCAR-5 ovarian
[15] = test system: HT29 colon
[16] = test system: SNB-19 CNS
[17] = test system: TK-10 renal
[18] = test system: MDA-MB-435
[19] = test system: M14 melanoma
[20] = test system: HCT-116 colon
[21] = test system: MDA-MB-231 breast
[22] = test system: 786-0 renal
[23] = test system: U251 CNS
[24] = test system: HCT-15 colon
[25] = test system: RXF 393 renal
[26] = test system: SF-295 CNS
[27] = test system: LOX IMVI melanoma
[28] = test system: SK-MEL-2 melanoma
[29] = test system: CCRF-CEM leukemia
[30] = test system: A549 NSCLC
[31] = test system: NCI-H522 lung
[32] = test system: UO-31 renal
[33] = test system: SR leukemia
[34] = test system: MALME-3M melanoma
[35] = test system: A498 renal
[36] = test system: OVCAR-4 ovarian
[37] = test system: EKVX NSCLC
[38] = test system: RPMI-8226 leukemia
[39] = test system: SW-620 colon
[40] = test system: UACC-62 melanoma
[41] = test system: K-562 leukemia
[42] = test system: ACHN renal
[43] = test system: SK-MEL-28 melanoma
[44] = test system: SF-539 CNS
[45] = test system: MOLT-4 leukemia
[46] = test system: SK-MEL-5 melanoma
[47] = test system: MCF7 breast
[48] = test system: OVCAR-3 ovarian
[49] = test system: HOP-62 NSCLC
[50] = test system: HOP-92 NSCLC
[51] = test system: BT-549 breast
[52] = test system: OVCAR-8 ovarian
[53] = test system: NCI-H460 lung
[54] = test system: HL-60(TB) leukemia
[55] = test system: NCI-H226 lung
[56] = test system: SNB-75 CNS
[57] = test system: IGROV1 ovarian
[58] = test system: HCC-2998 colon

## CC[Si](CC)(CC)OC[C@]1([C@@H]2COC(C)(C)O2)CC=CC(=O)O1
[1]
  GI50: 33.6 µM
  TGI: > 100 µM
[2]
  GI50: 31.1 µM
  TGI: > 100 µM
[3]
  GI50: 82.9 µM
  TGI: > 100 µM
[4]
  GI50: 34.6 µM
  TGI: > 100 µM
[5]
  GI50: 32.2 µM
  TGI: > 100 µM
[6]
  GI50: 40.4 µM
  TGI: > 100 µM
[7]
  GI50: 32.1 µM
  TGI: > 100 µM
[8]
  GI50: 41.5 µM
  TGI: > 100 µM
[9]
  GI50: 34.3 µM
  TGI: > 100 µM
[10]
  GI50: 23.3 µM
  TGI: > 100 µM
[11]
  GI50: 41.5 µM
  TGI: > 100 µM
[12]
  GI50: > 100 µM
  TGI: > 100 µM
[13]
  GI50: 59.9 µM
  TGI: > 100 µM
[14]
  GI50: > 100 µM
  TGI: > 100 µM
[15]
  GI50: 46.8 µM
  TGI: > 100 µM
[16]
  GI50: 34.7 µM
  TGI: > 100 µM
[17]
  GI50: 24.2 µM
  TGI: 79 µM
[18]
  GI50: 36.4 µM
  TGI: > 100 µM
[19]
  GI50: 33 µM
  TGI: > 100 µM
[20]
  GI50: 39.5 µM
  TGI: > 100 µM
[21]
  GI50: 51.1 µM
  TGI: > 100 µM
[22]
  GI50: 38.1 µM
  TGI: > 100 µM
[23]
  GI50: 42.2 µM
  TGI: > 100 µM
[24]
  GI50: 35.7 µM
  TGI: > 100 µM
[25]
  GI50: 48 µM
  TGI: > 100 µM
[26]
  GI50: 35.2 µM
  TGI: > 100 µM
[27]
  GI50: 25 µM
  TGI: 81 µM
[28]
  GI50: 41.1 µM
  TGI: > 100 µM
[29]
  GI50: 6.46 µM
  TGI: > 100 µM
[30]
  GI50: 30.4 µM
  TGI: > 100 µM
[31]
  GI50: 35.4 µM
  TGI: > 100 µM
[32]
  GI50: 34.8 µM
  TGI: > 100 µM
[33]
  GI50: 23 µM
  TGI: 95.1 µM
[34]
  GI50: 18.1 µM
  TGI: 44.4 µM
[35]
  GI50: 20.9 µM
  TGI: 75.7 µM
[36]
  GI50: 85.8 µM
  TGI: > 100 µM
[37]
  GI50: 31.5 µM
  TGI: > 100 µM
[38]
  GI50: 18.3 µM
  TGI: 65.6 µM
[39]
  GI50: 39.1 µM
  TGI: > 100 µM
[40]
  GI50: 25.6 µM
  TGI: > 100 µM
[41]
  GI50: 34.6 µM
  TGI: > 100 µM
[42]
  GI50: 42.8 µM
  TGI: > 100 µM
[43]
  GI50: 19.8 µM
  TGI: 85.3 µM
[44]
  GI50: 34.5 µM
  TGI: > 100 µM
[45]
  GI50: 31.7 µM
  TGI: > 100 µM
[46]
  GI50: 19 µM
  TGI: 40 µM
[47]
  GI50: 43.6 µM
  TGI: > 100 µM
[48]
  GI50: 32.6 µM
  TGI: > 100 µM
[49]
  GI50: 57.8 µM
  TGI: > 100 µM
[50]
  GI50: 19.7 µM
  TGI: > 100 µM
[51]
  GI50: 20.2 µM
  TGI: 71.2 µM
[52]
  GI50: 26.4 µM
  TGI: 91.8 µM
[53]
  GI50: 33.9 µM
  TGI: > 100 µM

## COc1cc2c(cc1OCCCCCCN1CCN(c3ncnc4ccccc34)CC1)N=CC1CCCN1C2=O (stereo unspecified)
[1]
  GI50: 0.0331 µM
  TGI: 0.436 µM
[2]
  GI50: 0.155 µM
  TGI: 6.47 µM
[3]
  GI50: 0.12 µM
  TGI: 0.548 µM
[4]
  GI50: 0.0887 µM
  TGI: 0.666 µM
[5]
  GI50: 0.237 µM
  TGI: 14.1 µM
[6]
  GI50: 0.0176 µM
  TGI: 0.134 µM
[7]
  GI50: 0.899 µM
[8]
  GI50: 0.0508 µM
  TGI: 0.742 µM
[9]
  GI50: 0.116 µM
  TGI: 0.375 µM
[10]
  GI50: 0.204 µM
  TGI: 0.677 µM
[54]
  GI50: 0.0782 µM
[11]
  GI50: 0.201 µM
  TGI: 3.48 µM
[12]
  GI50: 0.0237 µM
  TGI: 0.0792 µM
[13]
  GI50: 0.637 µM
  TGI: 7.47 µM
[14]
  GI50: 0.29 µM
  TGI: 13.4 µM
[15]
  GI50: 0.0449 µM
  TGI: 0.919 µM
[16]
  GI50: 0.208 µM
  TGI: 3.54 µM
[17]
  GI50: 0.155 µM
  TGI: 1.88 µM
[18]
  GI50: 0.0905 µM
  TGI: 0.252 µM
[19]
  GI50: 0.171 µM
  TGI: 1.22 µM
[20]
  GI50: 0.055 µM
  TGI: 0.282 µM
[21]
  GI50: 0.0425 µM
  TGI: 0.394 µM
[22]
  GI50: 0.141 µM
  TGI: 0.649 µM
[23]
  GI50: 0.0736 µM
  TGI: 1.05 µM
[24]
  GI50: 0.493 µM
  TGI: 2.39 µM
[25]
  GI50: 0.146 µM
  TGI: 0.325 µM
[26]
  GI50: 0.0508 µM
  TGI: 1.03 µM
[27]
  GI50: 0.0319 µM
  TGI: 1 µM
[55]
  GI50: 0.125 µM
  TGI: 0.33 µM
[28]
  GI50: 0.195 µM
  TGI: 1.83 µM
[29]
  GI50: 0.026 µM
  TGI: 0.302 µM
[30]
  GI50: 0.275 µM
  TGI: 5.55 µM
[31]
  GI50: < 0.0145 µM
  TGI: 0.135 µM
[33]
  GI50: < 0.0174 µM
  TGI: < 0.0321 µM
[34]
  GI50: 0.158 µM
  TGI: 0.376 µM
[35]
  GI50: 0.15 µM
  TGI: 0.344 µM
[36]
  GI50: 0.13 µM
  TGI: 2.05 µM
[37]
  GI50: 0.354 µM
  TGI: 2.01 µM
[38]
  GI50: < 0.0207 µM
  TGI: 0.103 µM
[39]
  GI50: 0.0935 µM
  TGI: 0.566 µM
[40]
  GI50: 0.143 µM
  TGI: 0.326 µM
[41]
  GI50: 0.0446 µM
[42]
  GI50: 0.345 µM
  TGI: 12.3 µM
[56]
  GI50: 0.0407 µM
  TGI: 0.256 µM
[43]
  GI50: 0.193 µM
  TGI: 0.51 µM
[57]
  GI50: 0.0602 µM
  TGI: 0.209 µM
[44]
  GI50: 0.109 µM
  TGI: 0.402 µM
[45]
  GI50: 0.0378 µM
  TGI: 0.203 µM
[46]
  GI50: 0.139 µM
  TGI: 0.287 µM
[47]
  GI50: < 0.0222 µM
  TGI: 0.597 µM
[58]
  GI50: 0.191 µM
  TGI: 0.52 µM
[48]
  GI50: 0.0336 µM
  TGI: 0.088 µM
[49]
  GI50: 0.29 µM
  TGI: 3.82 µM
[50]
  GI50: 0.0456 µM
  TGI: 0.408 µM
[51]
  GI50: 0.0422 µM
  TGI: 0.227 µM
[52]
  GI50: 0.188 µM
[53]
  GI50: 0.11 µM
  TGI: 0.728 µM
